Where two headings read alike, the source gives them in different places.
Legend:
[1] = set-up: method as in PMID 20686523, PMID 23542670; conditions: plasma concentration peak; cited from earlier work
[2] = Pharmacokinetic study of four steroidal saponins in rat plasma after oral administration of A. asphodeloides fractions (UPLC-MS/MS); assay type: in vivo, Sprague-Dawley rats; conditions: rat, in vivo, po; for AUC(0-t) / half-life / Cmax / Tmax: male, Sprague-Dawley, 400 mg/kg
Experimental: The dried A. asphodeloides were chopped into slices before using. The A. asphodeloides was immersed in water (1:10, w/v) and extracted twice by refluxing for 2 h. After filtration, the supernatant was condensed to a certain volume under reduced pressure, and 95% ethanol was added to the water extract filtrates until the concentration of ethanol was 80%. The precipitate was filtered as the macromolecular fraction (MF), the ethanol supernatant was concentrated under reduced pressure to a certain volume under vacuum and then purified by gradient elution with water, 40% ethanol and 70% ethanol from an AB-8 MARO porous resin column and then the water-eluted fraction was combined with the 40% ethanol-eluted fraction as the small molecule fraction (SF) and the 70% ethanol eluted fraction was the A. asphodeloides saponins extract (ASE). All of the residues were lyophilized and the resulting dry powder was stored at 4 °C before usage. The contents of four steroidal saponins in ASE dry powder were measured quantitatively by the external standard method using the same chromatography conditions as described above. The contents of timosaponin BII, anemarsaponin BIII, timosaponin AIII and timosaponin E1 in ASE were 429.12, 89.81, 59.13 and 41.25 mg/g, respectively.
Frozen plasma samples were unfrozen at room temperature and treated as follows: to each 200 µL plasma sample, 20 µL of IS (920 ng/mL ginsenoside Re) working solution and 600 µL of acetonitrile were added. After vortexing for 2 min and centrifugation at 13,000 rpm at 4 °C for 10 min the supernatant was transferred into a new tube and evaporated to dryness in a rotary evaporator at 39 °C and the residue was reconstituted in 100 µL of 0.1% formic acid–acetonitrile (50:50, v/v), vortexed for 2 min and centrifuged at 13,000 rpm at 4 °C for 10 min. The supernatant was transferred to an autosampler vial and an aliquot of 2 μL was injected onto the UPLC-MS/MS system for analysis.
Male Sprague-Dawley rats (250–280 g) were obtained from the Shanghai Slac Laboratory Animal Co., Ltd. (Shanghai, China). All animals were kept in an environmentally controlled breeding room (temperature: 20–25 °C, humidity: 55%–65%) for 1 week before the experiments started. Animal welfare and experimental procedures were strictly in accordance with the ethical norms of the Nanjing University of Chinese Medicine. All rats were fasted for 12 h with free access to water prior to the experiments, twenty-four rats were divided into four groups and then were given a single dose of ASE, ASE-SF, AS-MF, AS-M-SF. A 40 mg/mL ASE (the amount of MF, SF added to group AS-MF, ASE-SF, AS-M-SF were based on the proportion extracted from A. asphodeloides) aqueous solution in each group was administered orally at a dose of 400 mg/kg, which contained 171.61, 35.92, 23.62, 16.53 mg/kg of timosaponin BII, anemarsaponin BIII, timosaponin AIII, timosaponin E1, respectively.
About 400 μL blood samples were collected from venipuncture before intragastric gavage and at 0.083, 0.25, 0.5, 1, 1.5, 2, 4, 6, 8, 10, 12, 24 h after a single oral administration. The blood samples were immediately transferred to heparinized tubes and centrifuged at 3000 rpm for 10 min, and the supernatant was transferred into 2.0 mL Eppendorf tubes and stored at −80 °C prior to analysis. Blank plasma was obtained from the rat without oral administration and was used to investigate the assay development and validation.
To calculate the pharmacokinetic parameters of analytes in different group, concentrations–time dada were analyzed by DAS 3.2 software (Mathematical Pharmacology Professional Committee of China, Shanghai, China, 2011). Data were measured as the mean ± standard deviation (S.D.) with triplicate measurements. The identification of significances between different groups was executed with Student’s t-test. A p value < 0.05 was considered statistically significant.

## C[C@H]1CC[C@@]2(OC1)O[C@H]1C[C@H]3[C@@H]4CC[C@@H]5C[C@@H](O)CC[C@]5(C)[C@H]4CC[C@]3(C)[C@H]1[C@@H]2C [sarsasapogenin]
[1]
  shape of plasma concentration-time curve: single plasma concentration peak

## CC(CCC1(O)OC2C(O)C3C4CCC5CC(OC6OC(CO)C(O)C(O)C6OC6OC(CO)C(O)C(O)C6O)CCC5(C)C4CCC3(C)C2C1C)COC1OC(CO)C(O)C(O)C1O (centres unmarked) [Timosaponin E1, timosaponin E1]
[2]
  AUC(0-t): 286 ± 36.8 ng·h/mL
  half-life: 8.8 ± 3.83 h
  Cmax: 18.9 ± 1.54 ng/mL
  Tmax: 4 h
  T1/2: no obvious difference
  shape of plasma concentration-time curve: double peak
[2]; AUC0–t
  AUC(0-t): 115 ± 5.35 ng·h/mL
[2]; T1/2
  half-life: 2.95 ± 0.4 h

## CC1=C(CCC(C)COC2OC(CO)C(O)C(O)C2O)OC2CC3C4CCC5CC(OC6OC(CO)C(O)C(O)C6OC6OC(CO)C(O)C(O)C6O)CCC5(C)C4CCC3(C)C12 (centres unmarked) [Anemarsaponin BIII, anemarsaponin BIII]
[2]
  AUC(0-t): 551 ± 75 ng·h/mL
  half-life: 7.63 ± 3.37 h
  Cmax: 34.5 ± 3.75 ng/mL
  Tmax: 3.75 ± 1.78 h
  T1/2: no obvious difference
  shape of plasma concentration-time curve: double peak
[2]; AUC0–t
  AUC(0-t): 257 ± 20.4 ng·h/mL
[2]; T1/2
  half-life: 2.75 ± 1.14 h

Source: article PMC6331991, “Anemarrhena asphodeloides Non-Steroidal Saponin Components Alter the Pharmacokinetic Profile of Its Steroidal Saponins in Rat” (Molecules, 2015)
